PubChem BioAssay AID588840 (Broad Institute, 2011)

tested on: not listed separately; test: MDA-MB-231 breast cancer cell growth inhibition, dose response, CellTiter-Glo luminescence, dry powder, set 2 (AID 588840); conditions: MDA-MB-231 viability, CellTiter-Glo luminescence, 72 h; at 32 µM (top of the series)

Compared with O=C(/C=C/c1ccc(-c2ccccc2)cc1)NC1=NCCS1, Cc1ccc(/C=C/C(=O)NC2=NCCS2)cc1 is higher in viability fraction (lower = toxic): 76.4% for the first, 114% for the second.

Compared with COc1ccc(/C=C/C(=O)NC2=NCCS2)c(OC)c1, CC(C)c1ccc(/C=C/C(=O)NC2=NCCS2)cc1 is lower in viability fraction (lower = toxic): 118% for the first, 34.6% for the second.

Going from O=C(NC1CCCC1)c1ccc(COc2ccccc2)o1 to Cc1csc(NC(=O)c2ccc(COc3ccccc3)o2)n1, the viability fraction (lower = toxic) falls from 101% to 72.4%.

tested on: MDA-MB-231 viability, CellTiter-Glo luminescence, 72 h; test: as above; conditions: not given

For Cc1csc(NC(=O)c2ccc(COc3cccc(F)c3)o2)n1, the AC50 was 480 nM.
